Source: PMC6097184 (Clinical cancer research : an official journal of the …, 2017)

Legend:
human OAT3 = target: T1, human OAT3 (Homo sapiens, UniProt Q8TCC7); test: cellular uptake in HEK293 cells overexpressing OAT3
T1 sequence (Q8TCC7 1-542): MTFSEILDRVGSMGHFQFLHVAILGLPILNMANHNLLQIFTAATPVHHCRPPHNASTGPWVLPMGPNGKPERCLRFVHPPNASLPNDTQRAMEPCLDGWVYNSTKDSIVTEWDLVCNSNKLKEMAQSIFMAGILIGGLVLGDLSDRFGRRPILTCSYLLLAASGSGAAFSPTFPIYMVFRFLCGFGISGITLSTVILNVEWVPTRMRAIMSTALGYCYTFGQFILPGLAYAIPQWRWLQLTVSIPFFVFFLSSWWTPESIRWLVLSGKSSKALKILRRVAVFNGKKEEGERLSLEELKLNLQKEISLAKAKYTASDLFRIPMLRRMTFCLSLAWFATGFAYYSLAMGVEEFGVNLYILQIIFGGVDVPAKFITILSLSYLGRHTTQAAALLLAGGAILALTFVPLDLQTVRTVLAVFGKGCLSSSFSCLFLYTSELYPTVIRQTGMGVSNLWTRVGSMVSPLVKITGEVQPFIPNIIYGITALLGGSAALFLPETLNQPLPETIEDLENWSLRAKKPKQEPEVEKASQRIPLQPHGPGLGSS

human OATP2B1 = target: T2, human OATP2B1 (Homo sapiens, UniProt O94956); test: cellular uptake in HEK293 cells overexpressing OATP2B1; details: 10 μmol/L fluvastatin A
T2 sequence (O94956 1-709): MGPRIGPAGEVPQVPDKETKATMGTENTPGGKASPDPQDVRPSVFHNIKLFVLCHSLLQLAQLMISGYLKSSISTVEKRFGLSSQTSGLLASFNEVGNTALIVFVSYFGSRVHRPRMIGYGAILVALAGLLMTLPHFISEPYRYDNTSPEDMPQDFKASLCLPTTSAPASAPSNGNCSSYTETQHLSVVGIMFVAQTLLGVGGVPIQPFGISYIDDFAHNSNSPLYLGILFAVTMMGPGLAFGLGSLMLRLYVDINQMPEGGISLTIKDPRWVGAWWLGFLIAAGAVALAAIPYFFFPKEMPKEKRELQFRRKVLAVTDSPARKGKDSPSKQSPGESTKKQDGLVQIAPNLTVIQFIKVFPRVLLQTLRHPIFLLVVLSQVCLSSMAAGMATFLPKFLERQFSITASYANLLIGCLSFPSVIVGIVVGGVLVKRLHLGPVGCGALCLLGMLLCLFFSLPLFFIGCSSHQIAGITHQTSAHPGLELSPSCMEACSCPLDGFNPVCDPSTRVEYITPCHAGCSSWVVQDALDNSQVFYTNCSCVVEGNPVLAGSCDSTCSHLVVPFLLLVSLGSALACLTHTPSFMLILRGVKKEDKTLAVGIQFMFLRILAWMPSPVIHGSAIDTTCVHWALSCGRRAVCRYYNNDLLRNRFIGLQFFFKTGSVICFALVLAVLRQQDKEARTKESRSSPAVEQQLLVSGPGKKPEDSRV

[1] = fraction unbound in plasma; assay type: in vitro ADME; details: human, patient plasma, fu,p, mean ± SD, plasma of 20 patients with glioblastoma
Wee1 tyrosine kinase = details: ref https://ncats.nih.gov/files/AZD1775.pdf; cited from earlier work
[2] = physicochemical parameters from literature; details: high permeability and low solubility
[3] = test system: DNA damage and G2-checkpoint escape; details: ref https://ncats.nih.gov/files/AZD1775.pdf; cited from earlier work
[4] = assay type: in vivo; details: human, po, 400 mg, range, 20 patients with glioblastoma, single oral dose 100, 200 or 400 mg

| fraction unbound [1] | Biopharmaceutics Classification System (BCS) class [2] | Kp ([4]; tumor / plasma (total), total tumor-to-plasma concentration ratio (Kp)) | Kp uu ([4]; tumor / plasma (unbound), unbound tumor-to-plasma concentration ratio (Kp,uu)) | Compound | cellular uptake in OAT3 cells in presence of inhibitor (human OAT3; 50 μmol/L probenecid) | cellular uptake in HEK293 cells overexpressing OAT3 compared with vector control (human OAT3; no inhibitor) | cellular uptake in OATP2B1 cells in presence of inhibitor (human OATP2B1) | enzyme IC50 for inhibiting Wee1 activity (Wee1 tyrosine kinase) | IC50 for inducing DNA damage and G2-checkpoint escape in cell-based assays [3] |
| --- | --- | --- | --- | --- | --- | --- | --- | --- | --- |
| – | – | – | – | C[C@]12CC[C@@H]3c4ccc(OS(=O)(=O)O)cc4CC[C@H]3[C@@H]1CCC2=O [estrone-3-sulfate] | reduced estrone-3-sulfate uptake to a level similar to that in the vector control | significantly higher | reduced estrone-3-sulfate uptake to a level similar to that in the vector control | – | – |
| 0.182 ± 0.024 | class II | 3.8 to 40.4 | 1.3 to 24.4 | C=CCn1c(=O)c2cnc(Nc3ccc(N4CCN(C)CC4)cc3)nc2n1-c1cccc(C(C)(C)O)n1 [AZD1775] | – | – | – | 0.0026 µg/mL | ~0.04 µg/mL |
